Experimental data as given in patent publication US20110152313A1 (MACQUARIE UNIVERSITY, priority 2008, published 2011).

Assays:
Test in all cases: kinase binding constant, 11-point dose response (T7 phage, qPCR)
Settings in all cases: >30 = no inhibition at highest concentration tested
CAMK2G = CAMK2G (Homo sapiens, UniProt Q13555)
CAMKK2 = CAMKK2 (Homo sapiens, UniProt Q96RR4)
ULK1 = target: T1, ULK1 (Homo sapiens, UniProt O75385)
T1 sequence (O75385 1-1050): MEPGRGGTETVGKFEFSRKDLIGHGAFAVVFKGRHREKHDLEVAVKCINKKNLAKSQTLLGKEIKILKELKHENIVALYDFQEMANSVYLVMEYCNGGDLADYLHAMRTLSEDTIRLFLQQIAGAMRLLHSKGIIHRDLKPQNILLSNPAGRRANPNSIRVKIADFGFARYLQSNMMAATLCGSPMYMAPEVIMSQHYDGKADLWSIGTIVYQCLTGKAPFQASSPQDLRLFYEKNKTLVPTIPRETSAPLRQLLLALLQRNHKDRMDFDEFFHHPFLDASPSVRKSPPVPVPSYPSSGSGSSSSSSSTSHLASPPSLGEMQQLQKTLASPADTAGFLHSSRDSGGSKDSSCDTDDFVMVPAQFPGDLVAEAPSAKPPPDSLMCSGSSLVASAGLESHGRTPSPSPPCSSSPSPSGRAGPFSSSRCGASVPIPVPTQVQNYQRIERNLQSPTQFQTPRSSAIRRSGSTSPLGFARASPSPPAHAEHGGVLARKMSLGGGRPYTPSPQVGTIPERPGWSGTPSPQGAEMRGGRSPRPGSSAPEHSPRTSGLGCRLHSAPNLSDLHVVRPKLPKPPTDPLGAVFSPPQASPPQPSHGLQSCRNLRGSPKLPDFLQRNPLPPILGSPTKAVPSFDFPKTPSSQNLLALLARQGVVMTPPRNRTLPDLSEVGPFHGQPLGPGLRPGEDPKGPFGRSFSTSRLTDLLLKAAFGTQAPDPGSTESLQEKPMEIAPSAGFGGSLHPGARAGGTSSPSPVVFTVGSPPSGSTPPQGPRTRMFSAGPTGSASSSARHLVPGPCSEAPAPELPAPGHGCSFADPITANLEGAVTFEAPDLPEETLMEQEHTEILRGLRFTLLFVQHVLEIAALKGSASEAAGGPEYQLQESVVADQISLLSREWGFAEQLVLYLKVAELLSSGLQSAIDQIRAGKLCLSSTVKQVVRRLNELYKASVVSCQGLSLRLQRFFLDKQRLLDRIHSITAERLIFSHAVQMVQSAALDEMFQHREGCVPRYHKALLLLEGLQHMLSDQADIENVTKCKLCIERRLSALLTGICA

YANK2 = YANK2 (Homo sapiens, UniProt Q9NY57)
CDKL5 = target: T2, CDKL5 (Homo sapiens, UniProt O76039)
T2 sequence (O76039 1-960): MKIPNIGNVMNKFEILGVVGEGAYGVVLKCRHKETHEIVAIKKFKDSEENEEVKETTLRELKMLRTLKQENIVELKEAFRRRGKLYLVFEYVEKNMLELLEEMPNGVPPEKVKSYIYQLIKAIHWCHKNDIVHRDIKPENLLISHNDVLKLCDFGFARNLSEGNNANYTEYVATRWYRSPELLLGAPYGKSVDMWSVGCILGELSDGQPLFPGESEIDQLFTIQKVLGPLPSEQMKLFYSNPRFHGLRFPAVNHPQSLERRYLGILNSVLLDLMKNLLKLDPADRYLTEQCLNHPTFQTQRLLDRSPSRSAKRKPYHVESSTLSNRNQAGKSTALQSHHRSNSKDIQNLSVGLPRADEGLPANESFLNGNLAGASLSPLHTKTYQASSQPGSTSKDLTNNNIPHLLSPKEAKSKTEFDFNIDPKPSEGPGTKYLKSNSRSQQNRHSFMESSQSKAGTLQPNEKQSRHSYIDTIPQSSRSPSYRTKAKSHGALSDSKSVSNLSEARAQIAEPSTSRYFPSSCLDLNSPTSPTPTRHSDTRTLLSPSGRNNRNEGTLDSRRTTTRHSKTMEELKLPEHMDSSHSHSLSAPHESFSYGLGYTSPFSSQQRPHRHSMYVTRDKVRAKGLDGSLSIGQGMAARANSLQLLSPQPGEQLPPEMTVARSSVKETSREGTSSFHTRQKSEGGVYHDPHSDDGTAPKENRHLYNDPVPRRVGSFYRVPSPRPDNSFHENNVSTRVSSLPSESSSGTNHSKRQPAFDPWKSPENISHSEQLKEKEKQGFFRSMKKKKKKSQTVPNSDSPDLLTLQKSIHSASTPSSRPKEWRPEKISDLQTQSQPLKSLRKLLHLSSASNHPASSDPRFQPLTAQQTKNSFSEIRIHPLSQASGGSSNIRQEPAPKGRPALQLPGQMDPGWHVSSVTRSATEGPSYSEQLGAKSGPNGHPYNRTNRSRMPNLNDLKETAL

Chain of CAMKK2 (Q96RR4 whole entry): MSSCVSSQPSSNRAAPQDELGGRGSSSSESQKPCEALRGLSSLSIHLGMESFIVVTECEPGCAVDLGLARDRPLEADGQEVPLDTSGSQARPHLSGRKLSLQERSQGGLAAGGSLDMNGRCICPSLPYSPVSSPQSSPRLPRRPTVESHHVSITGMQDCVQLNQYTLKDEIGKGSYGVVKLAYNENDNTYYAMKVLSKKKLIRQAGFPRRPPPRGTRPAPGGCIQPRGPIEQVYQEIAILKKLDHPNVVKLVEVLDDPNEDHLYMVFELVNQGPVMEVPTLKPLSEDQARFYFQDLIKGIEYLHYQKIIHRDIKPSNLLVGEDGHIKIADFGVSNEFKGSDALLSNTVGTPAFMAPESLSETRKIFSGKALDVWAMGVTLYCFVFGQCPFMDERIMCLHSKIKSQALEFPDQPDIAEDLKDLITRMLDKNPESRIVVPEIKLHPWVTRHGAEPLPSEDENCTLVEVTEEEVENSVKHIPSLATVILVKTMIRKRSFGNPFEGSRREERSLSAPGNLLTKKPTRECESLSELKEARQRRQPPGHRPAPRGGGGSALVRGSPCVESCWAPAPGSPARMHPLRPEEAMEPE
Chain of YANK2 (Q9NY57 whole entry): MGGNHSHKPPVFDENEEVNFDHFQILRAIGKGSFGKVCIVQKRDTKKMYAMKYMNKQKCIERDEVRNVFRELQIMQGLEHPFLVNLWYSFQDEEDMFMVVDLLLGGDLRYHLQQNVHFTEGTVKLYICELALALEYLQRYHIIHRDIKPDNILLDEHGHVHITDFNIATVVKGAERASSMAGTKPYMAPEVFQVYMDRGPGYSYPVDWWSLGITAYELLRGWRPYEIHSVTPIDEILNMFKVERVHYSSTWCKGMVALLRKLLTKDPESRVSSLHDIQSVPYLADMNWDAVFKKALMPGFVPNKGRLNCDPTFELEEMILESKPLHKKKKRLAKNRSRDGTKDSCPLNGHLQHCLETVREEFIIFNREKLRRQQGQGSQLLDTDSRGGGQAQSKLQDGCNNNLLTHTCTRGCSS
Chain of CAMK2G (Q13555 whole entry): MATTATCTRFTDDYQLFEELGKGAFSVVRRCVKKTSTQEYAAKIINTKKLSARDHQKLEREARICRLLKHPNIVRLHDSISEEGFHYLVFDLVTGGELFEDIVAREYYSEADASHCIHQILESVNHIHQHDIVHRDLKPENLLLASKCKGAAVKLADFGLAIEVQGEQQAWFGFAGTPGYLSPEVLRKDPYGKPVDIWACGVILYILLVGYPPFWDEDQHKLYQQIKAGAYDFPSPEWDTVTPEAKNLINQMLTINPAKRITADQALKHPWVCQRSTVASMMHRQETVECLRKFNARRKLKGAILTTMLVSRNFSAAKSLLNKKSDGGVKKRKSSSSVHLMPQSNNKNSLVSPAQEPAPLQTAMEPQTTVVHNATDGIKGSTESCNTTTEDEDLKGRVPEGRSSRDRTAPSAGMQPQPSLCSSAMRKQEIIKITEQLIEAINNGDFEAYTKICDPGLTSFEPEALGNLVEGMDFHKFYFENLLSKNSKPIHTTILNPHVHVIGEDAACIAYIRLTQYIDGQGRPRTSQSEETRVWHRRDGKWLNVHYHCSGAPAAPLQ

Row | Structure (SMILES) | Kd (CAMK2G) [µM] | Kd (CAMKK2) [µM] | Kd (ULK1) [µM] | Kd (YANK2) [µM] | Kd (CDKL5) [µM]
1 | Nc1nc2c(-c3ccccn3)nccc2[nH]1 [drawing 35, 4-(pyrid-2-yl)-1H-imidazo[4,5-c]pyridin-2-amine] | > 30 | > 30 | 24 | – | –
2 | Nc1nc2c(-c3cnc4ccccc4c3)nccc2[nH]1 [drawing 36, 4-(quinolin-3-yl)-1H-imidazo[4,5-c]pyridin-2-amine] | – | – | – | > 30 | > 30
